Source: article PMC8600407 (Soft matter, 2021)

Columns and labels:
[1] = tested on: alkaline phosphatase (ALP); details: fff derivatives 8 mM, ALP 1.0 or 0.1 UmL^-1
[2] = hydrophobicity of the aromatic group; source not stated; cited from earlier work

Compound	enzymatic hydrogelation, times faster than pB as enzyme trigger [1]	logP [2]
O=C(O)c1ccc(-c2ccc(OP(=O)(O)O)cc2)cc1 [pBP, phosphohydroxybiphenyl-carboxylic acid]	50–60 times	
phosphohydroxynaphthoic acid [pNP]	50–60 times	
c1ccc(-c2ccccc2)cc1 [biphenyl]		3.71
